Data from US20200062696A1, “COMPOSITIONS AND METHODS FOR INHIBITING RETICULON 4” (THE REGENTS OF THE UNIVERSITY OF CALIFORNIA, priority 2017, published 2020).

Columns and labels:
[1] = system: SW620 colorectal cancer cells; assay: Serum-free cell survival of SW620 cells (Hoescht staining); assay type: cell-based; details: Homo sapiens, SW-620, cysteine-reactive fragment 50 μM, 48 h, vs DMSO, average of n = 3/group, read-out: SW620 survival Ave
Method: (§1) Cell Culture. SW620 cells were purchased from ATCC. SW620 cells were grown in L-15 media with 10% fetal bovine serum (FBS) in ambient CO2. U2OS cells were grown in DMEM media supplemented with 10% FBS at 37° C. with 5% CO2.
(§2) Survival and Proliferation Assays. Cells were plated the evening before the experiment, and allowed to adhere overnight. For serum-free cell survival assays, cells were plated in media not containing FBS. For cell proliferation assays, cells were plated in regular media. For the chemical genetics screen, cells were treated with either DMSO or the cysteine-reactive fragment for 48 h and cell viability was assessed by Hoescht stain using our previously described methods

[2] = system: SW620 colorectal cancer cells; assay: Cell proliferation of SW620 cells (Hoescht staining); assay type: cell-based; details: Homo sapiens, SW-620, cysteine-reactive fragment 50 μM, 48 h, vs DMSO, average of n = 3/group, read-out: SW620 proliferation Ave
Method: as §1, §2

## C=CC(=O)NCc1ccccc1 [DKM 2-31, N-benzylacrylamide]
[1]
  viability at 50 µM: 89%
[2]
  activity at 50 µM: 116%

## C=CC(=O)NC(C)CCc1ccccc1 (centres unmarked) [DKM 2-32, N-(4-phenylbutan-2-yl)acrylamide]
[1]
  viability at 50 µM: 91%
[2]
  activity at 50 µM: 114%

## C=CC(=O)NCc1ccc(OC)cc1 [DKM 2-33, N-(4-methoxybenzyl)acrylamide]
[1]
  viability at 50 µM: 92%
[2]
  activity at 50 µM: 115%

## C=CC(=O)NCc1ccc(F)cc1 [DKM 2-34, N-(4-fluorobenzyl)acrylamide]
[1]
  viability at 50 µM: 78%
[2]
  activity at 50 µM: 105%

## C=CC(=O)NCc1ccc(-c2ccccc2)cc1 [DKM 2-37, N-([1,1′-biphenyl]-4-ylmethyl)acrylamide]
[1]
  viability at 50 µM: 57%
[2]
  activity at 50 µM: 73%

## C=CC(=O)N1CCN(C(=O)OCC)CC1 [DKM 2-39, Ethyl 4-acryloylpiperazine-1-carboxylate]
[1]
  viability at 50 µM: 93%
[2]
  activity at 50 µM: 110%

## C=CC(=O)Nc1cc(F)ccc1F [DKM 2-40, N-(2,5-difluorophenyl)acrylamide]
[1]
  viability at 50 µM: 36%
[2]
  activity at 50 µM: 98%

## C=CC(=O)NCCc1ccccc1 [DKM 2-42, N-phenethylacrylamide]
[1]
  viability at 50 µM: 104%
[2]
  activity at 50 µM: 137%

## C=CC(=O)NCc1ccc(Br)cc1 [DKM 2-43, N-(4-bromobenzyl)acrylamide]
[1]
  viability at 50 µM: 84%
[2]
  activity at 50 µM: 128%

## C=CC(=O)NCc1cc(C)cc(C)c1 [DKM 2-47, N-(3,5-dimethylbenzyl)acrylamide]
[1]
  viability at 50 µM: 78%
[2]
  activity at 50 µM: 112%

## C=CC(=O)N1CCCC1 [DKM 2-48, 1-(pyrrolidin-1-yl)prop-2-en-1-one]
[1]
  viability at 50 µM: 90%
[2]
  activity at 50 µM: 85%

## C=CC(=O)N1CCOCC1 [DKM 2-49, 1-morpholinoprop-2-en-1-one]
[1]
  viability at 50 µM: 80%
[2]
  activity at 50 µM: 109%

## C=CC(=O)NCCCc1ccccc1 [DKM 2-50, N-(3-phenylpropyl)acrylamide]
[1]
  viability at 50 µM: 89%
[2]
  activity at 50 µM: 130%

## CCOC(=O)N1CCN(C(=O)CCl)CC1 [DKM 2-52, Ethyl 4-(2-chloroacetyl)piperazine-1-carboxylate]
[1]
  viability at 50 µM: 92%
[2]
  activity at 50 µM: 53%

## C=CC(=O)NCCOc1ccccc1OC [DKM 2-58, N-(2-(2-methoxyphenoxy)ethyl)acrylamide]
[1]
  viability at 50 µM: 98%
[2]
  activity at 50 µM: 116%

## C=CC(=O)NCc1ccccc1-c1ccccc1 [DKM 2-59, N-([1,1′-biphenyl]-2-ylmethyl)acrylamide]
[1]
  viability at 50 µM: 66%
[2]
  activity at 50 µM: 74%

## C=CC(=O)NCc1ccccc1Cl [DKM 2-60, N-(2-chlorobenzyl)acrylamide]
[1]
  viability at 50 µM: 108%
[2]
  activity at 50 µM: 100%

## C=CC(=O)NCc1ccccc1[N+](=O)[O-] [DKM 2-62, N-(2-nitrobenzyl)acrylamide]
[1]
  viability at 50 µM: 115%
[2]
  activity at 50 µM: 95%

## O=C(CCl)NCc1ccccc1 [DKM 2-67, N-benzyl-2-chloroacetamide]
[1]
  viability at 50 µM: 87%
[2]
  activity at 50 µM: 73%

## O=C(CCl)N1CCCC1 [DKM 2-71, 2-Chloro-1-(pyrrolidin-1-yl)ethan-1-one]
[1]
  viability at 50 µM: 81%
[2]
  activity at 50 µM: 41%

## CCCCCCCCCCNC(=O)CCl [DKM 2-72, 2-Chloro-N-decylacetamide]
[1]
  viability at 50 µM: 96%
[2]
  activity at 50 µM: 100%

## CC(CCc1ccccc1)NC(=O)CCl (centres unmarked) [DKM 2-76, 2-Chloro-N-(4-phenylbutan-2-yl)acetamide]
[1]
  viability at 50 µM: 44%
[2]
  activity at 50 µM: 50%

## O=C(CCl)NCc1ccc(F)cc1 [DKM 2-80, 2-chloro-N-(4-fluorobenzyl)acetamide]
[1]
  viability at 50 µM: 47%
[2]
  activity at 50 µM: 48%

## COc1ccc(CNC(=O)CCl)cc1 [DKM 2-83, 2-chloro-N-(4-methoxybenzyl)acetamide]
[1]
  viability at 50 µM: 66%
[2]
  activity at 50 µM: 48%

## C=CC(=O)Nc1cccc2c1CCC2 [DKM 2-84, N-(2,3-dihydro-1H-inden-4-yl)acrylamide]
[1]
  viability at 50 µM: 74%
[2]
  activity at 50 µM: 84%

## C=CC(=O)Nc1ccc2c(c1)OCO2 [DKM 2-86, N-(benzo[d][1,3]dioxol-5-yl)acrylamide]
[1]
  viability at 50 µM: 109%
[2]
  activity at 50 µM: 102%

## O=C(CCl)Nc1cccc2c1CCC2 [DKM 2-91, 2-chloro-N-(2,3-dihydro-1H-inden-4-yl)acetamide]
[1]
  viability at 50 µM: 38%
[2]
  activity at 50 µM: 59%

## COc1ccc(CNC(=O)CCl)cc1OC [DKM 2-93, 2-chloro-N-(3,4-dimethoxybenzyl)acetamide]
[1]
  viability at 50 µM: 74%
[2]
  activity at 50 µM: 57%

## O=C(CCl)NCc1ccccc1Cl [DKM 2-94, 2-Chloro-N-(2-chlorobenzyl)acetamide]
[1]
  viability at 50 µM: 43%
[2]
  activity at 50 µM: 32%

## C=CC(=O)N(C)Cc1ccccc1 [DKM 2-95, N-benzyl-N-methylacrylamide]
[1]
  viability at 50 µM: 52%
[2]
  activity at 50 µM: 85%

## C=CC(=O)N1CCC(c2ccccc2)CC1 [DKM 2-97, 1-(4-phenylpiperidin-1-yl)prop-2-en-1-one]
[1]
  viability at 50 µM: 106%
[2]
  activity at 50 µM: 96%

## C=CC(=O)Nc1ccc(-c2ccc(C#N)cc2)cc1 [DKM 2-98, N-(4′-cyano-[1,1′-biphenyl]-4-yl)acrylamide]
[1]
  viability at 50 µM: 52%
[2]
  activity at 50 µM: 42%

## C=CC(=O)NCCN1CCOCC1 [DKM 2-100, N-(2-morpholinoethyl)acrylamide]
[1]
  viability at 50 µM: 138%
[2]
  activity at 50 µM: 100%

## C=CC(=O)N1CCc2ccccc21 [DKM 2-101, 1-(indolin-1-yl)prop-2-en-1-one]
[1]
  viability at 50 µM: 39%
[2]
  activity at 50 µM: 96%

## C=CC(=O)NCCCC [DKM 2-102, N-butylacrylamide]
[1]
  viability at 50 µM: 124%
[2]
  activity at 50 µM: 133%

## C=CC(=O)NCCCOC [DKM 2-103, N-(3-methoxypropyl)acrylamide]
[1]
  viability at 50 µM: 135%
[2]
  activity at 50 µM: 112%

## C=CC(=O)NC1CCCCC1 [DKM 2-106, N-cyclohexylacrylamide]
[1]
  viability at 50 µM: 144%
[2]
  activity at 50 µM: 100%

## C=CC(=O)Nc1ccc(Cl)cc1 [DKM 2-107, N-(4-chlorophenyl)acrylamide]
[1]
  viability at 50 µM: 86%
[2]
  activity at 50 µM: 99%

## C=CC(=O)NC1CCCC1 [DKM 2-108, N-cyclopentylacrylamide]
[1]
  viability at 50 µM: 61%
[2]
  activity at 50 µM: 95%

## C=CC(=O)N1CCC(OC)CC1 [DKM 2-109, 1-(4-methoxypiperidin-1-yl)prop-2-en-1-one]
[1]
  viability at 50 µM: 140%
[2]
  activity at 50 µM: 96%

## C=CC(=O)NCc1ccc(OC)c(OC)c1 [DKM 2-110, N-(3,4-dimethoxybenzyl)acrylamide]
[1]
  viability at 50 µM: 112%
[2]
  activity at 50 µM: 95%

## C=CC(=O)N1CCN(C(=O)OC(C)(C)C)CC1 [DKM 2-111, tert-butyl 4-acryloylpiperazine-1-carboxylate]
[1]
  viability at 50 µM: 133%
[2]
  activity at 50 µM: 106%

## C=CC(=O)NCCOc1ccccc1 [DKM 2-113, N-(2-phenoxyethyl)acrylamide]
[1]
  viability at 50 µM: 75%
[2]
  activity at 50 µM: 147%

## C=CC(=O)N(C1CCCCC1)C1CCCCC1 [DKM 2-114, N,N-dicyclohexylacrylamide]
[1]
  viability at 50 µM: 76%
[2]
  activity at 50 µM: 111%

## C=CC(=O)NCc1ccc(C(F)(F)F)cc1 [DKM 2-116, N-(4-(trifluoromethyl)benzyl)acrylamide]
[1]
  viability at 50 µM: 123%
[2]
  activity at 50 µM: 90%

## C=CC(=O)N1CCC(C(=O)OCC)CC1 [DKM 2-120, Ethyl 1-acryloylpiperidine-4-carboxylate]
[1]
  viability at 50 µM: 102%
[2]
  activity at 50 µM: 96%

## C=CC(=O)NC(c1ccccc1)c1ccccc1 [DKM 3-4, N-benzhydrylacrylamide]
[1]
  viability at 50 µM: 122%
[2]
  activity at 50 µM: 120%

## C=CC(=O)N1CCN(c2ccccc2)CC1 [DKM 3-5, 1-(4-phenylpiperazin-1-yl)prop-2-en-1-one]
[1]
  viability at 50 µM: 59%
[2]
  activity at 50 µM: 82%

## C=CC(=O)Nc1ccc(C(C)=O)cc1 [DKM 3-7, N-(4-acetylphenyl)acrylamide]
[1]
  viability at 50 µM: 51%
[2]
  activity at 50 µM: 100%

## C=CC(=O)N1CCC(C)CC1 [DKM 3-8, 1-(4-methylpiperidin-1-yl)prop-2-en-1-one]
[1]
  viability at 50 µM: 152%
[2]
  activity at 50 µM: 105%

## C=CC(=O)NCC(OCC)OCC [DKM 3-9, N-(2,2-diethoxyethyl)acrylamide]
[1]
  viability at 50 µM: 75%
[2]
  activity at 50 µM: 100%

## C=CC(=O)Nc1ccc(SC)cc1 [DKM 3-10, N-(4-(methylthio)phenyl)acrylamide]
[1]
  viability at 50 µM: 41%
[2]
  activity at 50 µM: 79%

## C=CC(=O)N1CCC(C#N)CC1 [DKM 3-11, 1-acryloylpiperidine-4-carbonitrile]
[1]
  viability at 50 µM: 120%
[2]
  activity at 50 µM: 118%

## C=CC(=O)NCCCSC [DKM 3-12, N-(3-(methylthio)propyl)acrylamide]
[1]
  viability at 50 µM: 129%
[2]
  activity at 50 µM: 106%

## C=CC(=O)NCC1CCCCC1 [DKM 3-13, N-(cyclohexylmethyl)acrylamide]
[1]
  viability at 50 µM: 77%
[2]
  activity at 50 µM: 94%

## C=CC(=O)Nc1ccc(-c2ccc(CC)cc2)cc1 [DKM 3-16, N-(4′-ethyl-[1,1′-biphenyl]-4-yl)acrylamide]
[1]
  viability at 50 µM: 34%
[2]
  activity at 50 µM: 60%

## C=CC(=O)N1CCN(c2ccc(C(C)=O)cc2)CC1 [DKM 3-29, 1-(4-(4-acetylphenyl)piperazin-1-yl)prop-2-en-1-one]
[1]
  viability at 50 µM: 79%
[2]
  activity at 50 µM: 121%

## C=CC(=O)Nc1ccc(F)cc1 [DKM 3-31, N-(4-fluorophenyl)acrylamide]
[1]
  viability at 50 µM: 65%
[2]
  activity at 50 µM: 99%
